PubChem BioAssay (NCI)
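48-hour exposure; five concentrations; linearly interpolated endpoints. At the TGI there is no net growth.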

How the values were obtained:
Test in all cases: DTP human tumour cell line panel, 48 h
SK-MEL-2 melanoma = test system: SK-MEL-2 melanoma
MDA-N = test system: MDA-N
HL-60(TB) leukemia = test system: HL-60(TB) leukemia
MCF7 breast = test system: MCF7 breast
786-0 renal = test system: 786-0 renal
SNB-75 CNS = test system: SNB-75 CNS
CCRF-CEM leukemia = test system: CCRF-CEM leukemia
OVCAR-8 ovarian = test system: OVCAR-8 ovarian
DU-145 prostate = test system: DU-145 prostate
COLO 205 colon = test system: COLO 205 colon
T-47D breast = test system: T-47D breast

SMILES | TGI (SK-MEL-2 melanoma) | TGI (MDA-N) | TGI (HL-60(TB) leukemia) | TGI (MCF7 breast) | TGI (786-0 renal) | TGI (SNB-75 CNS) | TGI (CCRF-CEM leukemia) | TGI (OVCAR-8 ovarian) | TGI (DU-145 prostate) | TGI (COLO 205 colon) | TGI (T-47D breast)
CSC(=N/N=C(\C)c1ccc(S(=O)(=O)N(C)c2ccccc2)cc1)SC | > 100 µM | > 100 µM | > 100 µM | > 100 µM | > 100 µM | > 100 µM | > 95.2 µM | > 100 µM | > 100 µM | > 100 µM | > 100 µM
CCOC(=O)/C=C/C(Br)=C(Br)/C=C/C(=O)OCC | 49.3 µM | 27.3 µM | 26.1 µM | 26.2 µM | 8.61 µM | 26 µM | 2.84 µM | 21.3 µM | 29.1 µM | 30.8 µM | > 64.5 µM
CC(=O)N1C(=O)/C(=C\C(=O)c2ccc(Cl)cc2)c2ccccc21 | 38.9 µM | 30.9 µM | 5.24 µM | > 76.2 µM | 15.9 µM | 35 µM | 7.58 µM | 33.7 µM | 33.7 µM | 26.7 µM | 47.6 µM
O=C1CSC2=NC3=C(COC/C3=C\c3ccc(F)cc3)C(c3ccc(F)cc3)N12 (stereo not drawn) | > 100 µM | > 100 µM | 34.5 µM | > 100 µM | > 100 µM | > 100 µM | 74.5 µM | > 100 µM | > 100 µM | > 100 µM | > 100 µM
CC(=O)c1c2c(cc3c1CCC3)CCC2 | > 100 µM | > 100 µM | > 100 µM | > 100 µM | > 100 µM | > 100 µM | > 100 µM | > 100 µM | > 100 µM | > 100 µM | 46.8 µM
CC1=CCC(=O)[C@]2(C)C(CC(=O)O)[C@]3(C)C4=C(C)C(c5ccoc5)C[C@@H]4O[C@@H]3[C@H](O)[C@@H]12 (stereo partly drawn) | > 100 µM | > 100 µM | > 100 µM | > 100 µM | > 100 µM | > 100 µM | > 100 µM | > 100 µM | > 100 µM | > 100 µM | > 100 µM
C[C@@H]1CC(=O)[C@@]2(C)[C@](O)(CCC3O[C@]32C)[C@@]12CC(c1ccoc1)OC2=O (stereo partly drawn) | > 100 µM | > 100 µM | 62.8 µM | > 100 µM | > 100 µM | > 100 µM | 59.8 µM | > 100 µM | > 100 µM | > 100 µM | > 100 µM
O=C(c1cccs1)N(C(=O)N1CCCCC1)c1ccccc1 | > 100 µM | > 100 µM | > 100 µM | > 100 µM | > 100 µM | 88.7 µM | > 100 µM | > 100 µM | > 100 µM | > 100 µM | > 100 µM
